Read-outs that look alike come from different tables or passages of the source.
Legend:
[1] = target: T1, eosinophil peroxidase (EPO) (Homo sapiens, UniProt P11678); experiment: Inhibition of EPO-mediated bromination, monochlorodimedone (MCD) assay; format: biochemical
T1 construct: Eosinophil peroxidase was purified from human white blood cells to a purity index (A413/A280) of at least 1.0; from tissue; host or cells: human white blood cells
Protocol: Eosinophil peroxidase was purified from human white blood cells to a purity index (A413/A280) of at least 1.0 as described by Olsen and Little[27]. Its concentration was calculated using ε413 nm 110 000 M^−1 cm−1[28] Hydrogen peroxide, obtained as a 30% solution from Sigma Chemical Co., was diluted and the concentration determined by the absorbance measurement at 240 nm where the extinction coefficient is 39.4 M^−1 cm−1[29]. The other chemicals were also purchased from Sigma Chemical Co. at the highest grade available.
Halogenation activity was measured spectrophotometrically (Hitachi U-3000) using the monochlorodimedone (MCD) assay. MCD (100 µM) was dissolved in 100 mM phosphate buffer, pH 7.0 containing either bromide (100 mM) or chloride (100 mM) and 20 nM EPO. Upon addition of 100 µM H2O2 MCD was converted into dibromodimedone. […] If necessary the inhibitor stock solutions were prepared in dimethylsulfoxide (DMSO) and stored in dark flasks. Dilution was performed with 100 mM phosphate buffer, pH 7.0, to a final DMSO concentration of maximal 2% (v/v) in all assays. […] The inhibitor concentration that inhibited eosinophil peroxidase-dependent oxidation of MCD by 50% (IC50) was determined by fitting a rectangular hyperbola to the dose-response curve using nonlinear regression (see supplemental information A). All measurements were made in triplicate.
The 277 selected compounds were tested for inhibition. Monochlorodimedon (MCD) was used to monitor inhibition of EPO-mediated bromination. It turned out that certain compounds such as hydrazides are able to inhibit the EPO. Table 3 lists the IC50 values of four different 4-chlorophenyl derivatives of hydrazides and acetic acid. […] It is apparent that a free terminal amino group, which could act as an […] is essential for a strong inhibition, additional to steric and/or electrochemical properties of these compounds.
Supplementary Figure S1: IC 50 plots of inhibition of EPO halogenation activity. Figure A- […]
20 nM EPO and 200 µM hydrogen peroxide. Reactions were carried out in 100 mM phosphate buffer, pH 7, at 25 °C, Data are means of triplicate experiments. The inhibitory effect of each inhibitor was measured by determining the concentration at which it inhibited oxidation of MCD by 50% (IC50).

EPO Compound II = test system: T2, EPO Compound II; experiment: Sequential-mixing stopped-flow: reaction/transition of EPO Compound II with inhibitors; format: biochemical, human; conditions: pH 7.0, 25 °C; for apparent second-order rate constant for Compound II reduction (k4): 100 mM phosphate buffer
T2 construct: Eosinophil peroxidase was purified from human white blood cells to a purity index (A413/A280) of at least 1.0; from tissue; host or cells: human white blood cells
Protocol: The sequential stopped-flow apparatus (model SX-18 MV) and the associated computer system were from Applied Photophysics (UK). Because of the inherent instability of Compound I of EPO, the sequential stopped-flow (multi-mixing) technique was used for determination of rate of the reaction of Compound I with different inhibitors. Similar to bovine LPO, human EPO Compound I could be formed with equimolar concentrations of H2O2. In a typical experiment, 2 µM EPO was premixed with 2 µM H2O2 in the aging loop. After 100 ms of delay, the formed Compound I was mixed with increasing concentrations of different inhibitors. Formation and reduction of Compound II by compound 10 was investigated by following the biphasic time trace at 423 nm, where the transition of Compound I to Compound II and further to the […] can be followed. The kinetic traces were fitted using the double-exponential equation of the Applied Photophysics software. At least three determinations (2000 data points) of pseudo-first-order rate constants (kobs) from the first phase of the reaction were performed for each substrate concentration and the mean value was used in the calculation of the second-order rate constants, which were calculated from the slope of the line defined by a plot of kobs versus substrate concentration. Compound 11 was investigated by following the biphasic time traces at 430 nm the maximum absorbance of Compound II. All reactions were followed both at single wavelengths as well as with a diode-array detector. Polychromatic data were analysed with Pro-Kineticist from Applied Photophysics. The program simultaneously fits the kinetic traces at all wavelengths to the proposed reaction mechanism and simulates the spectra of all reactant, product and intermediate species as well as their time-dependent distribution on the reaction coordinate. All measurements were done in 100 mM phosphate buffer, pH 7.0, at 25 °C with a minimum of three repeats. […]
(§1) Firstly we investigated compound 10. […] Compound I reduction with compound 10 was measured at 423 nm. […]

EPO Compound I = test system: T3, EPO Compound I; experiment: Sequential-mixing stopped-flow: reaction of EPO Compound I with inhibitors; format: biochemical, human; conditions: for apparent second-order rate constant for Compound I reduction (k3): 100 mM phosphate buffer, pH 7.0, 25 °C; for type of inhibition (reversible / irreversible): concluded from pre-steady-state kinetics
T3 construct: Eosinophil peroxidase was purified from human white blood cells to a purity index (A413/A280) of at least 1.0; from tissue; host or cells: human white blood cells
Protocol: The sequential stopped-flow apparatus (model SX-18 MV) and the associated computer system were from Applied Photophysics (UK). Because of the inherent instability of Compound I of EPO, the sequential stopped-flow (multi-mixing) technique was used for determination of rate of the reaction of Compound I with different inhibitors. Similar to bovine LPO, human EPO Compound I could be formed with equimolar concentrations of H2O2. In a typical experiment, 2 µM EPO was premixed with 2 µM H2O2 in the aging loop. After 100 ms of delay, the formed Compound I was mixed with increasing concentrations of different inhibitors. Formation and reduction of Compound II by compound 10 was investigated by following the biphasic time trace at 423 nm, where the transition of Compound I to Compound II and further to the […] can be followed. The kinetic traces were fitted using the double-exponential equation of the Applied Photophysics software. At least three determinations (2000 data points) of pseudo-first-order rate constants (kobs) from the first phase of the reaction were performed for each substrate concentration and the mean value was used in the calculation of the second-order rate constants, which were calculated from the slope of the line defined by a plot of kobs versus substrate concentration. Compound 11 was investigated by following the biphasic time traces at 430 nm the maximum absorbance of Compound II. All reactions were followed both at single wavelengths as well as with a diode-array detector. Polychromatic data were analysed with Pro-Kineticist from Applied Photophysics. The program simultaneously fits the kinetic traces at all wavelengths to the proposed reaction mechanism and simulates the spectra of all reactant, product and intermediate species as well as their time-dependent distribution on the reaction coordinate. All measurements were done in 100 mM phosphate buffer, pH 7.0, at 25 °C with a minimum of three repeats.
In order to determine the mechanism of inhibition of EPO with aceto-hydrazide, acetic acid and thioacetic acid derivatives, a pre-steady-state kinetic study was performed with sequential-mixing stopped-flow spectroscopy. Three redox intermediates are relevant in the enzymology of EPO, namely Compound I, Compound II and Compound III (Figure 3). […] Alternatively, Compound I can also be reduced back by two one-electron reduction steps via Compound II (k3 and k4), Figure 3). The ferric enzyme can be reduced to ferrous enzyme (k5). Compound III can be formed either from ferric enzyme by reversible binding of superoxide (O2^–) (k6) or from the ferrous enzyme by reversible binding of dioxygen (O2) (k7). […]
as §1

[2] = test system: dextran sulfate-induced model of ulcerative colitis; design: method as in PMID 15100311; conditions: wild-type mice; cited from earlier work
[3] = Table 4, 20 nM EPO, 100 mM bromide, 100 µM H2O2, pH 7.0, read-out: IC50 value
[4] = training and test set compounds of the pharmacophore model, read-out: EPO IC50
[5] = as stated in text (abstract, conclusion), read-out: IC50
[6] = Table 3, 20 nM EPO, 100 mM bromide, 100 µM H2O2, pH 7.0, read-out: IC50 value

T1 sequence (P11678 251-715 limits assumed): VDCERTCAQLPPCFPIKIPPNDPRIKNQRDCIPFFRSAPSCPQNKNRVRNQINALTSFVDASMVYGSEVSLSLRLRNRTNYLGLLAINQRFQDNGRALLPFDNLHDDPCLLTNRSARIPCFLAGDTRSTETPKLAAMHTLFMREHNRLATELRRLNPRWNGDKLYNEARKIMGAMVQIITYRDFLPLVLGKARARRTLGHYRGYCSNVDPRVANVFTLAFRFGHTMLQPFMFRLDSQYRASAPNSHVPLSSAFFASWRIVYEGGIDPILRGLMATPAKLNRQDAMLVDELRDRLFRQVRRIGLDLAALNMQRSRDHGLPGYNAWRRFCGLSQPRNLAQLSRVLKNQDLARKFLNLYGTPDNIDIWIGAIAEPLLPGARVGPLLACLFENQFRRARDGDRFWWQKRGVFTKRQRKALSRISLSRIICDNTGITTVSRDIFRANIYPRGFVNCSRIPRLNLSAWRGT
T1 sequence (P11678 140-250 limits assumed): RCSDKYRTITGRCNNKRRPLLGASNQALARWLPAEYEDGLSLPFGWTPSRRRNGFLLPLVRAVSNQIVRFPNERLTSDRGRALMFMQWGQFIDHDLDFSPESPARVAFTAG

SMILES	IC50 [1, 3]	IC50 [1, 4]	other results
NNC(=O)CNc1ccccc1 [Compound 14, PAAH]	2.9 ± 0.1 µM		
NNC(=O)c1ccc(O)cc1O [Compound 9, reference compound]		3.52 µM	
NNC(=O)CNc1cccc(Br)c1 [Compound 23, 3-Bromo-PAAH]	0.823 ± 0.06 µM		
NNC(=O)c1nn(-c2ccccc2)cc1O [Compound 4, reference compound]		0.42 µM	
COc1ccc2[nH]cc(CCNC(C)=O)c2c1 [Compound 8, reference compound]		2.9 µM	
NNC(=O)CNc1ccc(Cl)cc1 [Compound 10, 2-[(4-chlorophenyl)amino]-acetohydrazide]			rate constant for transition Compound II - Compound III (EPO Compound II; independent of inhibitor concentration): ~1.2 s⁻¹; apparent second-order rate constant for Compound I reduction (k3) (EPO Compound I): 9.2e+06 M⁻¹ s⁻¹; type of inhibition (reversible / irreversible) (EPO Compound I): irreversible inhibitor; IC50 [1, 5]: 0.021 µM
Cc1ccc(NCC(=O)NN)cc1 [Compound 15, 4-Methyl-PAAH]	2.27 ± 0.09 µM		
NNC(=O)COc1ccc(Cl)cc1 [Compound 13, 2-(4-chlorophenoxy)-aceto-hydrazide]			IC50 [1, 6]: 4.9 ± 0.1 µM
NNC(=O)CNc1ccc(Br)cc1 [Compound 17, 4-Bromo-PAAH]	0.823 ± 0.08 µM		
NNC(=O)CNc1ccc(F)cc1F [Compound 20, 2,4-di Fluoro-PAAH]	0.02 ± 0.006 µM		
NNC(=O)CNc1ccc(F)cc1 [Compound 16, 4-Fluoro-PAAH]	0.172 ± 0.03 µM		
NNC(=O)CNc1ccccc1F [Compound 19, 2-[(2-fluorophenyl)amino]-aceto-hydrazide]	0.01 ± 0.005 µM		IC50 [1, 5]: 0.01 µM
Cn1c(=O)[nH]c(=O)c2c1nc(NCCCO)n2CCO [Compound 2, reference compound]		0.12 µM	
Oc1cccc(O)c1 [resorcinol]			disease activity parameters (weight loss, colon shrinkage, colonic bleeding) [2]: diminished
NNC(=O)CSc1ccc(Cl)cc1 [Compound 12, 2-(4-chlorophenyl) thio-acetohydrazide]			apparent second-order rate constant for Compound II reduction (k4) (EPO Compound II): 140000 M⁻¹ s⁻¹
NNc1cc(Cl)ccc1[N+](=O)[O-] [Compound 5, reference compound]		0.77 µM	
O=C(O)CNc1ccc(Cl)cc1 [Compound 11, 2-[(4-chlorophenyl)amino]-acetic acid]			apparent second-order rate constant for Compound II reduction (k4) (EPO Compound II): 11000 M⁻¹ s⁻¹; apparent second-order rate constant for Compound I reduction (k3) (EPO Compound I): 6.9e+06 M⁻¹ s⁻¹; type of inhibition (reversible / irreversible) (EPO Compound I): reversible inhibitor; IC50 [1, 6]: 0.205 ± 0.03 µM
CC/N=c1/scc(-c2ccc(O)c(C(N)=O)c2)n1CC [Compound 6, reference compound]		0.98 µM	
NNC(=O)c1ccccc1O [Compound 3, reference compound]		0.075 µM	
C=CCNc1nc2c(c(=O)[nH]c(=O)n2C)n1CC(O)CO (stereo not shown) [Compound 7, reference compound]		1.05 µM	
NNC(=O)CNc1ccccc1Cl [Compound 22, 2-Chloro-PAAH]	0.91 ± 0.04 µM		
NNC(=O)CNc1ccc(I)cc1 [Compound 18, 4-Iodo-PAAH]	0.29 ± 0.02 µM		
NNC(=O)CNc1ccc(F)c(Cl)c1 [Compound 21, 3-Chloro-4-fluoro-PAAH]	0.034 ± 0.005 µM		
NNC(=O)c1nn(-c2ccccc2C(F)(F)F)cc1O [Compound 1, reference compound]		0.05 µM	

Source: article PMC6179059, “Pharmacophore-based discovery of 2-(phenylamino)aceto-hydrazides as potent eosinophil peroxidase (EPO) inhibitors” (Journal of Enzyme Inhibition and Medicinal Chemistry, 2018)
